Our source for the Dose/g of tissue values is ChEMBL document CHEMBL1121716, “Potential organ- or tumor-imaging agents. 21. Acyl-labeled esters of cholesterol” (J Med Chem, 1981).

Common to all, as to conditions: in vivo
Series [1] relates to Rattus norvegicus. Briefly: Accumulation in ovary was evaluated by distribution of radioactivity at 0.5 hr after intravenous administration of 4-14C radiolabeled Cholesteryl Oleate to Rats. Type of series: ADME, organism-based, Female gonad.
The test system of series [2] is Rattus norvegicus. Briefly: Accumulation in blood was evaluated by distribution of radioactivity at 0.5 hr after intravenous administration of oleate 1-14C radiolabeled Cholesteryl Oleate to Rats. It is filed as ADME, organism-based.
Series [3] has as its system Rattus norvegicus. Briefly: Accumulation in adrenal cortex was evaluated by distribution of radioactivity at 0.5 h after intravenous administration of oleate 1-14C radiolabeled Cholesteryl Oleate to Rats. Type of series: ADME, organism-based.
In series [4] the test system is Rattus norvegicus. Briefly: Accumulation in adrenal cortex was evaluated by distribution of radioactivity at 0.5 hr after intravenous administration of 4-14C radiolabeled Cholesteryl Oleate to Rats. Type of series: ADME, organism-based.
Series [5] relates to Rattus norvegicus. Briefly: Accumulation in blood was evaluated by distribution of radioactivity at 0.5 hr after intravenous administration of 4-14C radiolabeled Cholesteryl Oleate to Rats. It is filed as ADME, organism-based.
Series [6] concerns Rattus norvegicus. Briefly: Accumulation in ovary was evaluated by distribution of radioactivity at 0.5 hr after intravenous administration of oleate 1-14C radiolabeled Cholesteryl Oleate to Rats. It is filed as ADME, organism-based, Female gonad.
Series [7] deals with Rattus norvegicus. Briefly: Accumulation in liver was evaluated by distribution of radioactivity at 0.5 hr after intravenous administration of 4-14C radiolabeled Cholesteryl Oleate to Rats. Type of series: ADME, organism-based.
Series [8] relates to Rattus norvegicus. Briefly: Accumulation in thyroid was evaluated by distribution of radioactivity at 0.5 hr after intravenous administration of oleate 1-14C radiolabeled Cholesteryl Oleate to Rats. It is filed as ADME, organism-based, Thyroid gland.
In series [9] the test system is Rattus norvegicus. Briefly: Accumulation in liver was evaluated by distribution of radioactivity at 0.5 hr after intravenous administration of oleate 1-14C radiolabeled Cholesteryl Oleate to Rats. Type of series: ADME, organism-based.
Series [10] has as its system Rattus norvegicus. Briefly: Accumulation in thyroid was evaluated by distribution of radioactivity at 0.5 hr after intravenous administration of 4-14C radiolabeled Cholesteryl Oleate to Rats. Type of series: ADME, organism-based, Thyroid gland.
For series [11], the system named is Rattus norvegicus. Briefly: Accumulation in adrenal cortex was evaluated by distribution of radioactivity at 0.5 hr after intravenous administration of radioiodinated cholesteryl 2,3,5-tri[125I]iodobenzoate to Rats. It is filed as ADME, organism-based.
The subject of series [12] is Rattus norvegicus. Briefly: Accumulation in lung was evaluated by distribution of radioactivity at 0.5 hr after intravenous administration of radioiodinated cholesteryl 2,3,5-tri[125I]iodobenzoate to Rats. It is filed as ADME, organism-based.
In series [13] the test system is Rattus norvegicus. Briefly: Accumulation in lung was evaluated by distribution of radioactivity at 24 hr after intravenous administration of radioiodinated cholesteryl 2,3,5-tri[125I]iodobenzoate to Rats. It is filed as ADME, organism-based.
Series [14] has as its system Rattus norvegicus. Briefly: Accumulation in adrenal cortex was evaluated by distribution of radioactivity at 24 hr after intravenous administration of radioiodinated cholesteryl 2,3,5-tri[125I]iodobenzoate to Rats. Type of series: ADME, organism-based.
The test system of series [15] is Rattus norvegicus. Briefly: Accumulation in liver was evaluated by distribution of radioactivity at 0.5 hr after intravenous administration of radioiodinated cholesteryl 2,3,5-tri[125I]iodobenzoate to Rats. It is filed as ADME, organism-based.
For series [16], the system named is Rattus norvegicus. Briefly: Accumulation in thyroid was evaluated by distribution of radioactivity at 0.5 hr after intravenous administration of radioiodinated cholesteryl 2,3,5-tri[125I]iodobenzoate to Rats. Type of series: ADME, organism-based, Thyroid gland.
Series [17] deals with Rattus norvegicus. Briefly: Accumulation in spleen was evaluated by distribution of radioactivity at 24 h after intravenous administration of radioiodinated cholesteryl 2,3,5-tri[125I]iodobenzoate to Rats. Type of series: ADME, organism-based.
Series [18] has as its system Rattus norvegicus. Briefly: Accumulation in ovary was evaluated by distribution of radioactivity at 24 hr after intravenous administration of radioiodinated cholesteryl 2,3,5-tri[125I]iodobenzoate to Rats. It is filed as ADME, organism-based, Female gonad.
The test system of series [19] is Rattus norvegicus. Briefly: Accumulation in blood was evaluated by distribution of radioactivity at 24 hr after intravenous administration of radioiodinated cholesteryl 2,3,5-tri[125I]iodobenzoate to Rats. Type of series: ADME, organism-based.
Series [20] concerns Rattus norvegicus. Briefly: Accumulation in blood was evaluated by distribution of radioactivity at 0.5 hr after intravenous administration of radioiodinated cholesteryl 2,3,5-tri[125I]iodobenzoate to Rats. Type of series: ADME, organism-based.
Series [21] relates to Rattus norvegicus. Briefly: Accumulation in liver was evaluated by distribution of radioactivity at 24 hr after intravenous administration of radioiodinated cholesteryl 2,3,5-tri[125I]iodobenzoate to Rats. It is filed as ADME, organism-based.
In series [22] the test system is Rattus norvegicus. Briefly: Accumulation in thyroid was evaluated by distribution of radioactivity at 24 hr after intravenous administration of radioiodinated cholesteryl 2,3,5-tri[125I]iodobenzoate to Rats. Type of series: ADME, organism-based, Thyroid gland.
Series [23] relates to Rattus norvegicus. Briefly: Accumulation in spleen was evaluated by distribution of radioactivity at 0.5 hr after intravenous administration of radioiodinated cholesteryl 2,3,5-tri[125I]iodobenzoate to Rats. Type of series: ADME, organism-based.
Series [24] concerns Rattus norvegicus. Briefly: Accumulation in ovary was evaluated by distribution of radioactivity at 0.5 hr after intravenous administration of radioiodinated cholesteryl 2,3,5-tri[125I]iodobenzoate to Rats. It is filed as ADME, organism-based, Female gonad.

The structures appear in SMILES notation.

As for `CCCCCCCC/C=C\CCCCCCCC(=O)OC1CCC2(C)C(=CCC3C2CCC2(C)C(C(C)CCCC(C)C)CCC32)C1` (centres undefined), the Dose/g of tissue in the series with Rattus norvegicus [1] was 2.815%; with Rattus norvegicus [2] it was 5.196%; with Rattus norvegicus [3], 2.448%; in the series on Rattus norvegicus [4] it was 3.85%; in the series on Rattus norvegicus [5], 5.78%; in the series with Rattus norvegicus [6], 2.088%. In addition, the Dose/g of tissue is reported as 1.569% in the series with Rattus norvegicus [7], 0.344% in the series with Rattus norvegicus [8], 1.236% in the series with Rattus norvegicus [9] and 0.446% in the series on Rattus norvegicus [10].

`CC(C)CCCC(C)C1CCC2C3CC=C4CC(OC(=O)c5cc(I)cc(I)c5I)CCC4(C)C3CCC12C` (centres undefined): the Dose/g of tissue in the series on Rattus norvegicus [11] amounted to 5.455%; with Rattus norvegicus [12] it was 1.49%; in the series on Rattus norvegicus [13], 0.703%; with Rattus norvegicus [14], 9.032%; in the series with Rattus norvegicus [15], 2.726%; in the series with Rattus norvegicus [16], 0.47%. Also, the Dose/g of tissue in the series on Rattus norvegicus [17] was found to be 1.68%; in the series with Rattus norvegicus [18], 16.19%; in the series on Rattus norvegicus [19], 0.568%; in the series with Rattus norvegicus [20] it was 5.46%; with Rattus norvegicus [21], 5.106%; in the series with Rattus norvegicus [22], 2.63%. For the same compound, the Dose/g of tissue in the series with Rattus norvegicus [23] stood at 0.57%; in the series on Rattus norvegicus [24], 6.148%.
